{"source": "paper PMC10747430", "about": "“^99mTc-Labeled Cyclic Peptide Targeting PD-L1 as a Novel Nuclear Imaging Probe” (Pharmaceutics, 2023)", "target": "T1, human integrin αVβ3 protein (Homo sapiens, UniProt P05106+P06756)", "T1 construct": "purchased Chemicom, Merck", "T1 sequence (P06756 31-889 limits assumed)": "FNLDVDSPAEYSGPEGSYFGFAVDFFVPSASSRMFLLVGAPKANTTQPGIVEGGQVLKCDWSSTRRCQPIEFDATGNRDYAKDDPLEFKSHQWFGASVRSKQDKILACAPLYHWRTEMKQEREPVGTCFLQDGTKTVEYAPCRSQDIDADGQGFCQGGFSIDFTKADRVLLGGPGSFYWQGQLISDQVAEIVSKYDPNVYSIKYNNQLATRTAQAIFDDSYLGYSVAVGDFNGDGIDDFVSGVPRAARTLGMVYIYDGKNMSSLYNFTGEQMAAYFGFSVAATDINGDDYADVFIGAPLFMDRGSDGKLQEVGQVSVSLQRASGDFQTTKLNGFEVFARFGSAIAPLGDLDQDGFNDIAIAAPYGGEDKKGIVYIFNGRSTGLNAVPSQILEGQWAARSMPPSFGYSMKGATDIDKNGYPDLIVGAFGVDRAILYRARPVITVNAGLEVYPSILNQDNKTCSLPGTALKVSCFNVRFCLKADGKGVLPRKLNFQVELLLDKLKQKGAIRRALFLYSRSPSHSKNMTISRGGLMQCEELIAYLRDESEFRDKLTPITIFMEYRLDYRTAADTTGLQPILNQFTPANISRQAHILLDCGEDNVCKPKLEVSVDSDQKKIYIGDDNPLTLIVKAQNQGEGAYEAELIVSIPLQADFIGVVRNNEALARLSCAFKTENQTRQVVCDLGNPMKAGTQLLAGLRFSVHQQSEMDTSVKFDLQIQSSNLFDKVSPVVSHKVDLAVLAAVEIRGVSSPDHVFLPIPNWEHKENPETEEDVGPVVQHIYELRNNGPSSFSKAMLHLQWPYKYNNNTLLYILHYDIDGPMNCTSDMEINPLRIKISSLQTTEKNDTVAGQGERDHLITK", "T1 sequence (P06756 891-1048 limits assumed)": "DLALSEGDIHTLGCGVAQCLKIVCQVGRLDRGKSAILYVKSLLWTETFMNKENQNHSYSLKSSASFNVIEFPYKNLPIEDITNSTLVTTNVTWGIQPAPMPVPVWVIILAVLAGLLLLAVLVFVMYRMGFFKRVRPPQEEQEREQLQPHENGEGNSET", "T1 sequence (P05106 27-788)": "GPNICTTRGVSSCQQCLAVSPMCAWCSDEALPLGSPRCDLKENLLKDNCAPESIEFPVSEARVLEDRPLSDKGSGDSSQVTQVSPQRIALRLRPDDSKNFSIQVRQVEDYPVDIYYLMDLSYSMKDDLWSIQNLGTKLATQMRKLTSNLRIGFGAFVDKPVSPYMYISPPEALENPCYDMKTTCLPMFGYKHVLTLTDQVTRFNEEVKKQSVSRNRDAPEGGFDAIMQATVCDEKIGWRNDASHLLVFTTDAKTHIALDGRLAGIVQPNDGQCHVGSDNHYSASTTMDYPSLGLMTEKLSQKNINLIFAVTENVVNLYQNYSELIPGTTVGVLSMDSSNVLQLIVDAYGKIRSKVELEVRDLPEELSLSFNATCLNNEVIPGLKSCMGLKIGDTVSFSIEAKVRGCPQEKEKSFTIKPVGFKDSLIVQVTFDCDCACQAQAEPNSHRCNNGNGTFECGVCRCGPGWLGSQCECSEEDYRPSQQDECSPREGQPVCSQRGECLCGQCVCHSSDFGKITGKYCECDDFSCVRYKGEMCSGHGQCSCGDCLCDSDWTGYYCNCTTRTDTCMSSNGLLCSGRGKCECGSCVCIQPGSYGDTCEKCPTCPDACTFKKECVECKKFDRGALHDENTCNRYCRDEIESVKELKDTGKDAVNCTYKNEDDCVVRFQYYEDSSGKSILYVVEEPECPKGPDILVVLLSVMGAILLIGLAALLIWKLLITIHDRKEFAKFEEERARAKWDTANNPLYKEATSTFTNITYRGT", "experiment": "Radio-SDS-PAGE with integrin (negative control protein)", "type": "binding", "details": "radiopeptide incubated with integrin αVβ3 (200 µg/mL) 30 min at 37 °C, radio-TLC scan", "description": "SDS-PAGE gel electrophoresis was performed. Radioactivity distribution was determined using a radio-TLC scanner (Mini-Gita, 60–150 keV, BGO-Crystal, window 25 × 2 mm, thickness 5 mm, resolution optimized for Tc-99m; RayTest, Munich, Germany) to detect [^99mTc]Tc-iPD-L1 and [^99mTc]Tc-WL12 binding to PD-L1 protein.\nBriefly, ^99mTc-labeled WL12 and iPD-L1 solutions (100 µL) (1 mg/mL peptide) were incubated with human recombinant PD-L1 protein (100 µL) (200 µg/mL; FineTest; Cat: P6857) (radiopeptide-PD-L1 interaction) or human integrin αVβ3 protein (100 µL) (negative control; 200 µg/mL) (Chemicom, Merck; Burlington, MA, USA) (radiopeptide-integrin interaction) for 30 min at 37 °C, after which the samples were diluted with Laemmli sample buffer (containing 10% SDS, Tris-Cl 125 mM, pH = 6.8, 12.5% glycerol and 0.005% bromophenol blue after dye) to give final protein concentrations of 25 µg/mL. […] Finally, the radioactivity distribution on the gels was scanned using a radio-TLC detector to determine the percentage of [^99mTc]Tc-iPD-L1 or [^99mTc]Tc-WL12 radioactivity associated with proteins.\nIn vitro-specific recognition of [^99mTc]Tc-iPD-L1 and [^99mTc]Tc-WL12 by the PD-L1 protein was performed using a combination of radio-TLC and SDS-PAGE (radio-SDS-PAGE). […] Therefore, the radioactivity associated with free peptides is in the front of the gel plate (around 60–70 mm). […]"}
{"smiles": "CCCC[C@H]1C(=O)N(C)[C@@H](CCCC)C(=O)N[C@@H](CCCNC(=O)c2ccc(NN)nc2)C(=O)N[C@H](C(=O)NCC(N)=O)CSCC(=O)N[C@@H](Cc2ccc(O)cc2)C(=O)N(C)[C@@H](C)C(=O)N[C@@H](CC(N)=O)C(=O)N2CCC[C@H]2C(=O)N[C@@H](Cc2c[nH]cn2)C(=O)N[C@@H](CC(C)C)C(=O)N2C[C@H](O)C[C@H]2C(=O)N[C@@H](Cc2c[nH]c3ccccc23)C(=O)N[C@@H](CO)C(=O)N[C@@H](Cc2cn(C)c3ccccc23)C(=O)N1C", "note": "[[^99mTc]Tc-WL12, metal not drawn]", "values": [{"measurement": "shift in radioactivity with integrin (negative control)", "result": "no shift in radioactivity"}]}
